For 80 compounds, viability results are on record in paper PMC12040169 (PLOS Biology, 2025).

The nature of the series: in vitro. Conditions: human, hela cells, % viability.
Regarding `Cc1cc(S(=O)(=O)N2CCCCC2)ccc1OCC(=O)O` [CBK269254], the viability at 28.5 h, 10 µM came to 80%.

For the compound `O=C(O)CCN1CCN(S(=O)(=O)c2ccc3ccccc3c2)CC1` [CBK269255], the viability at 28.5 h, 10 µM worked out at 88.4%. Then `O=C(c1cccs1)N(Cc1ccco1)c1ccc(O)cc1` [CBK269256], with 88.9%; and `Cn1c(=O)c2c(nc(CN3CCOCC3)n2CCc2ccccc2)n(C)c1=O` [CBK269264], with 89.3%; and `COc1ccccc1N1CCn2c1nc1c2c(=O)n(CCN2CCOCC2)c(=O)n1C` [CBK269265], with 93.4%. Then `Cc1ccc(S(=O)(=O)CCOc2nc3c(C(F)(F)F)cc(C4CC4)nc3o2)cc1` [CBK269267], with 111%. Consider `COC(=O)c1c(NC(=O)C(=O)NCc2ccco2)sc2c1CCCC2` [CBK269269], for which the viability at 28.5 h, 10 µM stood at 87.5%. The same measure for `CN1CCN(CC(=O)C(C#N)c2ccccc2)CC1` (centres unmarked) [CBK269270]: 87.7%; for `COc1ccc(-c2noc(CNC(=O)Cc3ccc(-c4ccccc4)cc3)n2)cc1` [CBK269272]: 105%. On to `Cc1ccc2cc(CN(Cc3ccco3)C(=O)c3cccs3)c(O)nc2c1` [CBK269274], for which the viability at 28.5 h, 10 µM is 105%. The same measure for `COC(=O)c1ccccc1NC(=O)CC1Nc2ccccc2NC1=O` (centres unmarked) [CBK269276A]: 91.9%; for `c1ccc2c(c1)OCC(c1nn3cnnc3s1)O2` (centres unmarked) [CBK269277]: 111%; for `Cn1c(=O)c2c(nc(CN3CCCCC3)n2CCCO)n(C)c1=O` [CBK269280]: 106%.

Consider `Cn1c(=O)c2c(nc(CN3CCCCC3)n2CCN2CCOCC2)n(C)c1=O` [CBK269281], for which the viability at 28.5 h, 10 µM is 99.2%. The same measure for `Cn1c(=O)[nH]c(=O)c2c1nc(Sc1ncccn1)n2CCCc1ccccc1` [CBK269282]: 86.3%; for `Cc1onc(-c2ccccc2Cl)c1C(=O)N(Cc1nc(-c2ccccc2)no1)C(C)C` [CBK269289]: 113%; for `CCN1CCN(C(=S)c2ccc(OCC(N)=O)c(OC)c2)CC1` [CBK269293]: 86.1%.

Consider `COc1ccc2c(CCNC(=O)C(c3ccccc3)c3ccccc3)c[nH]c2c1` [CBK269294], for which the viability at 28.5 h, 10 µM was determined as 81.3%.

Turning to `CC(=O)Nc1cccc(C(=O)N(Cc2ccccc2)Cc2ccccc2)c1` [CBK269295], the viability at 28.5 h, 10 µM was found to be 91.6%.

As to `COc1ccc2[nH]cc(CCNC(=O)c3ccc(NC(C)=O)cc3)c2c1` [CBK269296], the viability at 28.5 h, 10 µM is 96.6%.

`Cc1ccc2cc(CN(Cc3ccco3)C(=O)C3CCCO3)c(O)nc2c1` (centres unmarked) [CBK269300]: the viability at 28.5 h, 10 µM was 103%. Then `O=C(CC(C(=O)O)n1cncn1)c1ccc(Br)cc1` (centres unmarked) [CBK269305], with 103%; and `CN1CCN(Cc2nc3c(c(=O)n(C)c(=O)n3C)n2Cc2ccc(Br)cc2)CC1` [CBK269310], with 87.9%. The same measure for `Cc1c(C(=O)C2=C(O)C(=O)N(CCCN(C)C)C2c2cccnc2)cnn1-c1ccccc1` (centres unmarked) [CBK269312]: 93.8%. Then `C=CCNS(=O)(=O)c1ccc(NC(=O)Nc2ccc(Cl)cc2)cc1` [CBK269315], with 101%.

With `Fc1c(F)c(Oc2ccccc2Cl)c(F)c(F)c1/C=C/CN1CCOCC1` [CBK269318C], the viability at 28.5 h, 10 µM turned out to be 96.7%. Then `COc1ccc(OC)c(-n2c(S)nnc2Cn2c(-c3ccccn3)nc3ccccc32)c1` [CBK269320], with 93.5%. Regarding `O=C(O)c1ccccc1SC1CC(=O)N(CCc2ccccc2)C1=O` (centres unmarked) [CBK269321], the viability at 28.5 h, 10 µM is 93.6%. Then `CC1CCCCN1Cc1nc2c(c(=O)n(C)c(=O)n2C)n1CCCc1ccccc1` (centres unmarked) [CBK269326], with 97%. Turning to `Cn1c(=O)n(CCN2CCOCC2)c(=O)c2c1nc1n2CCN1c1ccccc1` [CBK269328], the viability at 28.5 h, 10 µM was determined as 95.1%. For `Cc1ccc2cc(CN(Cc3ccccc3)S(C)(=O)=O)c(O)nc2c1` [CBK269329], the viability at 28.5 h, 10 µM turned out to be 94.4%. The same measure for `Cc1ccc2nsnc2c1NC(=O)CN1CCCCC1` [CBK269330]: 110%; for `Cc1cccc(NC(=O)C(c2ccccc2)N2CCOCC2)c1` (centres unmarked) [CBK269331]: 103%; for `N#CC(C(=O)CN1CCCC1)c1ccccc1` (centres unmarked) [CBK269333]: 98.1%. Take `Cc1ncc([N+](=O)[O-])n1CC(=O)Nc1ccccc1F` [CBK269335]: the viability at 28.5 h, 10 µM is 86.4%.

As to `COc1ccccc1CC(=O)NCc1nc(-c2cccc(C)c2)no1` [CBK269336], the viability at 28.5 h, 10 µM was determined as 96.7%. Then `O=C1CC(Nc2ccc(N3CCOCC3)cc2)C(=O)N1CCc1ccccc1` (centres unmarked) [CBK269339], with 111%; and `CC1CN(Cc2nc3c(c(=O)n(C)c(=O)n3C)n2CCN2CCOCC2)CC(C)O1` (centres unmarked) [CBK269340], with 93.3%; and `Cc1c(NC(=O)CSc2nnc(-c3ccc4ccccc4n3)s2)c(=O)n(-c2ccccc2)n1C` [CBK269341], with 92.7%.

On to `Cn1c(N)c(C(=O)NCC2CCCO2)c2nc3ccccc3nc21` (centres unmarked) [CBK269342], for which the viability at 28.5 h, 10 µM was determined as 96.8%. The same measure for `CCN1CCN(c2ccc(NC(=O)c3cc(-n4cnnc4)ccc3Cl)cc2Cl)CC1` [CBK269343]: 88.1%; for `COc1ccccc1NC(=O)Cn1c(=O)oc2cc(Cl)ccc21` [CBK269344]: 94.6%. The same measure for `Cc1cc(C)n(C(=O)CCNS(=O)(=O)c2ccc(Cl)cc2)n1` [CBK269348]: 111%. Then `O=C(CSc1nc(=O)cc(O)[nH]1)N1CCc2ccccc21` [CBK269350], with 88.7%. Turning to `O=C(NCCNC(=O)c1ccccc1I)c1ccccn1` [CBK269357], the viability at 28.5 h, 10 µM was 89.4%. `COc1ccc(NC2=NC(=O)CC(C(=O)Nc3ccc(C)c(C)c3)N2)cc1` (centres unmarked) [CBK269359]: the viability at 28.5 h, 10 µM came to 104%. As for `CSc1nsc(SCC(=O)N(c2ccccc2)c2ccccc2)n1` [CBK269361], the viability at 28.5 h, 10 µM is 95.3%. The same measure for `Cc1nc(C)n(CCc2nc3ccccc3[nH]2)n1` [CBK269364]: 105%; for `CCC1CCCCN1Cc1nc2c(c(=O)n(C)c(=O)n2C)n1CCCO` (centres unmarked) [CBK269365]: 91.8%; for `Cn1c(=O)[nH]c(=O)c2c1nc(N1CCOCC1)n2CCCSc1nc2ccccc2s1` [CBK269368]: 92.7%. Regarding `O=C(NCCCNC(=O)c1ccc(Cl)cc1Cl)c1ccncc1` [CBK269372], the viability at 28.5 h, 10 µM stood at 89.7%. Then `CCN(CC(=O)N1CCN(C)CC1)S(=O)(=O)c1ccc(OC)cc1` [CBK269374], with 89.2%; and `COc1ccc2ccccc2c1CNc1ccc(N2CCOCC2)c(C(=O)O)c1` [CBK269376], with 94.1%; and `COCCn1c(CN2CCC(Cc3ccccc3)CC2)nc2c1c(=O)n(C)c(=O)n2C` [CBK269378], with 99.1%.

Consider `Cn1c(=O)c2c(nc(CN3CCC(Cc4ccccc4)CC3)n2CCN2CCOCC2)n(C)c1=O` [CBK269380], for which the viability at 28.5 h, 10 µM was determined as 100%.

For `COc1ccc(S(=O)(=O)NC(C)C(=O)NCc2cccnc2)cc1Cl` (centres unmarked) [CBK269384], the viability at 28.5 h, 10 µM worked out at 95.8%. Then `CS(=O)(=O)N(CC(=O)NCc1ccccn1)c1ccc2c(c1)OCO2` [CBK269385], with 87.2%; and `N#CCSc1nc(-c2cccnc2)ccc1C(=O)O` [CBK269387], with 106%. The same measure for `FC(F)(F)c1cc(-c2ccccc2)nc2onc(OCCN3CCOCC3)c12` [CBK269392]: 90.9%; for `OCc1cc(Cl)c(Cl)c(CO)c1O` [CBK269397]: 95.5%.

As for `COc1ccccc1-c1noc(C2CCN(S(=O)(=O)c3ccc(F)cc3)CC2)n1` [CBK269401], the viability at 28.5 h, 10 µM is 92.9%.

Regarding `O=C(O)CCN1CCN(S(=O)(=O)c2ccccc2)CC1` [CBK269402], the viability at 28.5 h, 10 µM came out at 106%. Then `O=C(Nc1ccc(Cl)cc1)Nc1cccc(C(=O)O)c1` [CBK269404], with 98.7%; and `O=C(CSc1ncnc2c1cnn2-c1ccccc1)Nc1ccccc1` [CBK269408], with 96.4%.

As for `Cc1ccc2nsnc2c1NC(=O)CSc1nccn1C` [CBK269411], the viability at 28.5 h, 10 µM amounted to 104%. Regarding `Cc1ccc(C2c3c(O)n[nH]c3CC(C)(O)C2C(=O)OCc2ccccc2)cc1` (centres unmarked) [CBK269417], the viability at 28.5 h, 10 µM was 92.8%. The same measure for `Cc1c(NC(=O)CSc2nncn2C)ccc2nsnc12` [CBK269418]: 104%.

As for `Cc1nnc(SCCn2c(N3CC(C)CC(C)C3)nc3c2c(=O)n(C)c(=O)n3C)s1` (centres unmarked) [CBK269419], the viability at 28.5 h, 10 µM turned out to be 100%. With `Cc1cccc(NC(=O)NCc2ccccn2)c1` [CBK269422], the viability at 28.5 h, 10 µM was determined as 92.3%. Then `CN1CCN(c2ccc(NC(=O)c3cc([N+](=O)[O-])ccc3N3CCOCC3)cc2)CC1` [CBK269425], with 95.6%; and `CC(Nc1nc(N2CCN(CCO)CC2)nc2ccccc12)c1ccccc1` (centres unmarked) [CBK269427], with 106%; and `O=C(NCCCNC(=O)c1ccc(Br)o1)c1ccccn1` [CBK269430], with 107%. Then `COC(=O)c1c(NC(=O)C(=O)NCc2ccccn2)sc2c1CCC2` [CBK269431], with 94.6%. The same measure for `CN(CC(=O)C(C#N)c1ccccc1)Cc1ccccc1` (centres unmarked) [CBK269432]: 96.8%; for `COc1cccc2cc(C(=O)C3=C(O)C(=O)N(CCN4CCOCC4)C3c3cccs3)oc12` (centres unmarked) [CBK269433]: 101%. As to `CS(=O)(=O)N(Cc1ccco1)Cc1cc2ccccc2nc1O` [CBK269434], the viability at 28.5 h, 10 µM is 111%. Then `N#CC1=C(Nc2ccccc2)Oc2cc(N)ccc2C1c1cccnc1` (centres unmarked) [CBK269435], with 100%; and `CCN(CC(=O)N1CCN(Cc2ccc3c(c2)OCO3)CC1)S(=O)(=O)c1ccccc1` [CBK269436], with 92.3%.

In the case of `Cn1c(=O)c2c(nc(CN3CCN(C(=O)c4ccco4)CC3)n2Cc2ccccc2)n(C)c1=O` [CBK269437], the viability at 28.5 h, 10 µM worked out at 93%. On to `Cc1cc(Cl)ccc1NC(=O)CN1CCN(Cc2ccccc2)CC1` [CBK269438], for which the viability at 28.5 h, 10 µM is 93.6%.
